Results as given in patent publication US11344537B2 (BIOVERSYS AG, priority 2019, dated 2022).
Values after ≈ are worked out from the molar mass of the structure shown. Where two headings read alike, the source gives them in different places.

Key:
[1] = Preliminary assessment of solubility in solvents (24 h); type: physicochemical; settings: thermodynamic from solid, 24 h stirring at room temperature, read-out: Solubility (mg/ml) at 24 h
Protocol: After 24 h stirring at room temperature, samples were centrifuged, and the supernatant analyzed by HPLC.

[2] = Dissolution of rifabutin in DMI or DMI/water with acid and dilution with aqueous solutions; type: physicochemical; settings: in DMI without water or acid; longer than plausibly acceptable
[3] = in Ethanol (literature data); cited from earlier work
[4] = human, in vivo, cited from earlier work
[5] = HIV-infected patients, 300 mg/day (Hafner et al, 1998); cited from earlier work

For `CO[C@H]1/C=C/O[C@@]2(C)Oc3c(C)c(O)c4c(c3C2=O)C2=NC3(CCN(CC(C)C)CC3)NC2=C(NC(=O)/C(C)=C\C=C\[C@H](C)[C@H](O)[C@@H](C)[C@@H](O)[C@@H](C)[C@H](OC(C)=O)[C@@H]1C)C4=O` [rifabutin], the solubility at 24 h ([1]; aqueous buffer, in Acetate buffer pH 4 (USP)) was 11.3 mg/mL (≈ 13300 µM), the solubility at 24 h ([1]; aqueous buffer, in Borate buffer pH 10 (USP)) was 1.9 mg/mL (≈ 2240 µM) and the solubility at 24 h ([1]; aqueous buffer, in Phosphate buffer pH 6 (USP)) was 0.3 mg/mL (≈ 354 µM). It also gave a solubility at 24 h ([1]; aqueous buffer, in Phosphate buffer pH 8 (USP)) of 0.2 mg/mL (≈ 236 µM), a solubility at 24 h ([1]; aqueous with cosolvent or surfactant or cyclodextrin, in Povidone K12 (5% w/w in water)) of 0.5 mg/mL (≈ 590 µM) and a solubility at 24 h ([1]; aqueous with cosolvent or surfactant or cyclodextrin, in Tween 80 (1% w/w in water)) of 1.3 mg/mL (≈ 1530 µM). For the same molecule, the solubility at 24 h ([1]; organic solvent or mixture, in Dimethyl isosorbide (DMI)) was at least 245 mg/mL, the solubility at 24 h ([1]; organic solvent or mixture, in Dimethylacetamide (DMA)) was at least 204 mg/mL and the solubility at 24 h ([1]; organic solvent or mixture, in Glycerol) was 0.4 mg/mL (≈ 472 µM). For the same molecule, the solubility at 24 h ([1]; organic solvent or mixture, in N-Methyl-2-pyrrolidone (NMP)) was at least 190 mg/mL, the solubility at 24 h ([1]; organic solvent or mixture, in Polyethylene glycol 400 (PEG400)) was at least 110 mg/mL and the solubility at 24 h ([1]; organic solvent or mixture, in Propylene glycol) was at least 92 mg/mL. The solubility at 24 h ([1]; organic solvent or mixture, in Transcutol HP) was at least 206 mg/mL, the solubility at 24 h ([1]; saline or isotonic, in Saline 0.9%) was 0.3 mg/mL (≈ 354 µM) and the “Dissolution of rifabutin in DMI, concentration” value [2] was over 250 mg/mL. For the same molecule, the “Solubility (mg/ml) at 24 h” value [3] was 30 mg/mL (≈ 35400 µM), the “time at which Cmax is attained after oral administration” value ([4]; 300 mg) was “approximately 3 hours” and the “mean Cmax” value ([4]; po, 300 mg) was 375 ng/mL. The Cmax ([4]; po, 600 mg) was 400 to 700 ng/mL, the oral dose absorbed [4] was “at least 53%” and the “AUC at steady state” value [5] was 8600 ± 8200 ng·h/mL. The “Cmax at steady state” value [5] was 590 ± 330 ng/mL.
